Experimental data from PubChem BioAssay AID1963958 (Molecular Pharmacology Branch, DTP, NCI, 2024).

Test system: MDA-MB-231 multicell spheroids, viability
Assay: Anticancer human tumor MDA-MB-231 cell line growth inhibition [PI3K];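 note: spheroids exposed to agents for seven days before reading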;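 for viability, T/C: percent of vehicle control luminescence with DMSO treated spheroids as 100%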
Conditions: for IC50: curve of first compound; for viability, T/C: stronger effect = lower value; active = viability on the fitted dose curve at most 10% of control; inactive = the rest
Procedure, shortened: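 High-throughput combination screen: PI3K inhibitors crossed with targeted small molecules on complex spheroids of tumor cells, HUVEC and MSCs at 37 degrees C, 5% CO2. Top concentration was at or near clinical Cmax (otherwise 10 microM), with half-log decrements.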

[1] = second compound 0.00316 µM, first compound 0.0316 µM
[2] = second compound 0.00316 µM, first compound 0.1 µM
[3] = second compound 0.00316 µM, first compound 0.316 µM
[4] = second compound 0.00316 µM, first compound 1 µM
[5] = second compound 0.00316 µM, first compound 3.16 µM
[6] = second compound 0.00316 µM, first compound 10 µM
[7] = second compound 0.01 µM, first compound 0.0316 µM
[8] = second compound 0.01 µM, first compound 0.1 µM
[9] = second compound 0.01 µM, first compound 0.316 µM
[10] = second compound 0.01 µM, first compound 1 µM
[11] = second compound 0.01 µM, first compound 3.16 µM
[12] = second compound 0.01 µM, first compound 10 µM
[13] = second compound 0.0316 µM, first compound 0.0316 µM
[14] = second compound 0.0316 µM, first compound 0.1 µM
[15] = second compound 0.0316 µM, first compound 0.316 µM
[16] = second compound 0.0316 µM, first compound 1 µM
[17] = second compound 0.0316 µM, first compound 3.16 µM
[18] = second compound 0.0316 µM, first compound 10 µM
[19] = second compound 0.1 µM, first compound 0.0316 µM
[20] = second compound 0.1 µM, first compound 0.1 µM
[21] = second compound 0.1 µM, first compound 0.316 µM
[22] = second compound 0.1 µM, first compound 1 µM
[23] = second compound 0.1 µM, first compound 3.16 µM
[24] = second compound 0.1 µM, first compound 10 µM
[25] = second compound 0.316 µM, first compound 0.0316 µM
[26] = second compound 0.316 µM, first compound 0.1 µM
[27] = second compound 0.316 µM, first compound 0.316 µM
[28] = second compound 0.316 µM, first compound 1 µM
[29] = second compound 0.316 µM, first compound 3.16 µM
[30] = second compound 0.316 µM, first compound 10 µM
[31] = second compound 1 µM, first compound 0.0316 µM
[32] = second compound 1 µM, first compound 0.1 µM
[33] = second compound 1 µM, first compound 0.316 µM
[34] = second compound 1 µM, first compound 1 µM
[35] = second compound 1 µM, first compound 3.16 µM
[36] = second compound 1 µM, first compound 10 µM
[37] = second compound 0.00316 µM, first compound 0.00316 µM
[38] = second compound 0.00316 µM, first compound 0.01 µM
[39] = second compound 0.01 µM, first compound 0.00316 µM
[40] = second compound 0.01 µM, first compound 0.01 µM
[41] = second compound 0.0316 µM, first compound 0.00316 µM
[42] = second compound 0.0316 µM, first compound 0.01 µM
[43] = second compound 0.1 µM, first compound 0.00316 µM
[44] = second compound 0.1 µM, first compound 0.01 µM
[45] = second compound 0.316 µM, first compound 0.00316 µM
[46] = second compound 0.316 µM, first compound 0.01 µM
[47] = second compound 1 µM, first compound 0.00316 µM
[48] = second compound 1 µM, first compound 0.01 µM

CC(C)NCC(C(=O)N1CCN(c2ncnc3c2C(C)CC3O)CC1)c1ccc(Cl)cc1 (stereo not given) + COc1c(OCCCN2CCOCC2)ccc2c3n(c(=NC(=O)c4cnc(N)nc4)nc12)CCN3
inactive: viability, T/C [1] 96.1% | viability, T/C [2] 93.7% | viability, T/C [3] 83.5% | viability, T/C [4] 74.6% | viability, T/C [5] 59.3% | viability, T/C [6] 46.3% | viability, T/C [7] 81.8% | viability, T/C [8] 81.4% | viability, T/C [9] 69.2% | viability, T/C [10] 62.6% | viability, T/C [11] 54.7% | viability, T/C [12] 43.4% | viability, T/C [13] 61.6% | viability, T/C [14] 59.1% | viability, T/C [15] 55.8% | viability, T/C [16] 56.3% | viability, T/C [17] 45.6% | viability, T/C [18] 33.9% | viability, T/C [19] 48.5% | viability, T/C [20] 48.7% | viability, T/C [21] 45.6% | viability, T/C [22] 39.3% | viability, T/C [23] 37.9% | viability, T/C [24] 28.9% | viability, T/C [25] 32.9% | viability, T/C [26] 34% | viability, T/C [27] 31.2% | viability, T/C [28] 30.1% | viability, T/C [29] 25.5% | viability, T/C [30] 18.7% | viability, T/C [31] 23.8% | viability, T/C [32] 23.7% | viability, T/C [33] 24.9% | viability, T/C [34] 23% | viability, T/C [35] 24.8% | viability, T/C [36] 18.8%
7260 nM: IC50 (second compound 0.00316 µM)
1840 nM: IC50 (second compound 0.0316 µM)
< 31.6 nM: IC50 (second compound 0.1 µM) | IC50 (second compound 0.316 µM) | IC50 (second compound 1 µM)
4830 nM: IC50 (second compound 0.01 µM)

CCN1CCN(Cc2ccc(Nc3ncc(F)c(-c4cc(F)c5nc(C)n(C(C)C)c5c4)n3)nc2)CC1 + COc1c(OCCCN2CCOCC2)ccc2c3n(c(=NC(=O)c4cnc(N)nc4)nc12)CCN3
195 nM: IC50 (second compound 0.00316 µM)
< 3.16 nM: IC50 (second compound 0.1 µM) | IC50 (second compound 0.316 µM) | IC50 (second compound 1 µM)
inactive: viability, T/C [37] 89% | viability, T/C [38] 79.4% | viability, T/C [1] 72.3% | viability, T/C [2] 52.1% | viability, T/C [3] 47.7% | viability, T/C [4] 45.1% | viability, T/C [39] 77.8% | viability, T/C [40] 66.2% | viability, T/C [7] 57.2% | viability, T/C [8] 46.5% | viability, T/C [9] 39.7% | viability, T/C [10] 40.2% | viability, T/C [41] 56% | viability, T/C [42] 50.9% | viability, T/C [13] 43.9% | viability, T/C [14] 38.4% | viability, T/C [15] 35.9% | viability, T/C [16] 39.6% | viability, T/C [43] 45.1% | viability, T/C [44] 40% | viability, T/C [19] 33.4% | viability, T/C [20] 27.9% | viability, T/C [21] 31% | viability, T/C [22] 38.1% | viability, T/C [45] 30% | viability, T/C [46] 27.2% | viability, T/C [25] 24.1% | viability, T/C [26] 22.4% | viability, T/C [27] 28% | viability, T/C [28] 42.7% | viability, T/C [47] 24.6% | viability, T/C [48] 22.5% | viability, T/C [31] 22.4% | viability, T/C [32] 25.5% | viability, T/C [33] 43.7% | viability, T/C [34] 83.2%
65.4 nM: IC50 (second compound 0.01 µM)
8.45 nM: IC50 (second compound 0.0316 µM)

Cn1ncc(Cl)c1-c1cc(C(=O)NC(CN)Cc2cccc(F)c2)sc1Cl (stereo not given) + COc1c(OCCCN2CCOCC2)ccc2c3n(c(=NC(=O)c4cnc(N)nc4)nc12)CCN3
2080 nM: IC50 (second compound 0.01 µM)
< 31.6 nM: IC50 (second compound 0.1 µM) | IC50 (second compound 0.316 µM) | IC50 (second compound 1 µM)
1040 nM: IC50 (second compound 0.0316 µM)
2620 nM: IC50 (second compound 0.00316 µM)
inactive: viability, T/C [1] 99.2% | viability, T/C [2] 93.8% | viability, T/C [3] 84.5% | viability, T/C [4] 72% | viability, T/C [5] 44.6% | viability, T/C [6] 25.7% | viability, T/C [7] 78.6% | viability, T/C [8] 83.1% | viability, T/C [9] 74.2% | viability, T/C [10] 63.7% | viability, T/C [11] 42.3% | viability, T/C [12] 25.4% | viability, T/C [13] 60.2% | viability, T/C [14] 61.5% | viability, T/C [15] 60.8% | viability, T/C [16] 48.9% | viability, T/C [17] 34.8% | viability, T/C [18] 19.6% | viability, T/C [19] 48.2% | viability, T/C [20] 47.5% | viability, T/C [21] 46% | viability, T/C [22] 40.7% | viability, T/C [23] 29.9% | viability, T/C [24] 17.4% | viability, T/C [25] 32.5% | viability, T/C [26] 33.6% | viability, T/C [27] 29.9% | viability, T/C [28] 29.2% | viability, T/C [29] 20.9% | viability, T/C [30] 13.9% | viability, T/C [31] 25.8% | viability, T/C [32] 24.8% | viability, T/C [33] 24.4% | viability, T/C [34] 23.4% | viability, T/C [35] 22.2% | viability, T/C [36] 20.8%

Cn1nccc1Nc1nccc(-c2ccn(C(CO)c3ccc(Cl)c(F)c3)c(=O)c2)n1 (stereo not given) + COc1c(OCCCN2CCOCC2)ccc2c3n(c(=NC(=O)c4cnc(N)nc4)nc12)CCN3
inactive: viability, T/C [1] 74.5% | viability, T/C [2] 69.9% | viability, T/C [3] 48.3% | viability, T/C [4] 44% | viability, T/C [5] 37.7% | viability, T/C [6] 28% | viability, T/C [7] 65.9% | viability, T/C [8] 58.6% | viability, T/C [9] 46% | viability, T/C [10] 34.8% | viability, T/C [11] 28.3% | viability, T/C [12] 23.5% | viability, T/C [13] 50.3% | viability, T/C [14] 48.9% | viability, T/C [15] 41.8% | viability, T/C [16] 32.5% | viability, T/C [17] 26.6% | viability, T/C [18] 20.4% | viability, T/C [19] 41.6% | viability, T/C [20] 34.3% | viability, T/C [21] 29.3% | viability, T/C [22] 25.9% | viability, T/C [23] 22.4% | viability, T/C [24] 13.1% | viability, T/C [25] 25.8% | viability, T/C [26] 22.8% | viability, T/C [27] 17.8% | viability, T/C [28] 17% | viability, T/C [29] 13.2% | viability, T/C [31] 20.8% | viability, T/C [32] 16.8% | viability, T/C [33] 13.8% | viability, T/C [34] 12.7% | viability, T/C [35] 10.5%
48.2 nM: IC50 (second compound 0.0316 µM)
467 nM: IC50 (second compound 0.00316 µM)
222 nM: IC50 (second compound 0.01 µM)
< 31.6 nM: IC50 (second compound 0.1 µM) | IC50 (second compound 0.316 µM) | IC50 (second compound 1 µM)
active: viability, T/C [30] 8.91% | viability, T/C [36] 7.95%

Cn1ncnc1[C@H]1c2n[nH]c(=O)c3cc(F)cc(c23)N[C@@H]1c1ccc(F)cc1 + COc1c(OCCCN2CCOCC2)ccc2c3n(c(=NC(=O)c4cnc(N)nc4)nc12)CCN3
> 100 nM: IC50 (second compound 0.00316 µM) | IC50 (second compound 0.01 µM)
< 0.316 nM: IC50 (second compound 0.1 µM) | IC50 (second compound 0.316 µM) | IC50 (second compound 1 µM)
inactive: viability, T/C (second compound 0.00316 µM, first compound 0.000316 µM) 94% | viability, T/C (second compound 0.00316 µM, first compound 0.001 µM) 89.6% | viability, T/C [37] 91.4% | viability, T/C [38] 78.5% | viability, T/C [1] 78.5% | viability, T/C [2] 72.9% | viability, T/C (second compound 0.01 µM, first compound 0.000316 µM) 76.4% | viability, T/C (second compound 0.01 µM, first compound 0.001 µM) 76.7% | viability, T/C [39] 68.9% | viability, T/C [40] 64.8% | viability, T/C [7] 67.2% | viability, T/C [8] 60.3% | viability, T/C (second compound 0.0316 µM, first compound 0.000316 µM) 57.8% | viability, T/C (second compound 0.0316 µM, first compound 0.001 µM) 59.2% | viability, T/C [41] 53.8% | viability, T/C [42] 53.5% | viability, T/C [13] 51.7% | viability, T/C [14] 46.1% | viability, T/C (second compound 0.1 µM, first compound 0.000316 µM) 46.4% | viability, T/C (second compound 0.1 µM, first compound 0.001 µM) 46.6% | viability, T/C [43] 43% | viability, T/C [44] 43.7% | viability, T/C [19] 39.7% | viability, T/C [20] 37.5% | viability, T/C (second compound 0.316 µM, first compound 0.000316 µM) 31.8% | viability, T/C (second compound 0.316 µM, first compound 0.001 µM) 32.3% | viability, T/C [45] 32.4% | viability, T/C [46] 29.6% | viability, T/C [25] 30.1% | viability, T/C [26] 25.7% | viability, T/C (second compound 1 µM, first compound 0.000316 µM) 24.4% | viability, T/C (second compound 1 µM, first compound 0.001 µM) 23.5% | viability, T/C [47] 24.6% | viability, T/C [48] 23.5% | viability, T/C [31] 25.7% | viability, T/C [32] 22.4%
38.4 nM: IC50 (second compound 0.0316 µM)
